Columns and labels:
[1] = Metabolic stability in mouse liver microsomes (MLM); assay type: in vitro ADME; conditions: mouse, pooled mouse liver microsomes, pH 7.4, MLM (CD-1), NADPH
Text: MLM Stability Pooled MLM from CD-1 mice (BIOIVT M00501) were used.

5-HT1A receptor = 5-HT1A receptor (Homo sapiens (Human), UniProt P08908); assay: FLIPR Ca^2+ flux agonist assay at 5-HT1A; assay type: cell-based; conditions: CHO cells
[2] = Metabolic stability in rat liver microsomes (RLM); assay type: in vitro ADME; conditions: both sexes, rat, pooled rat liver microsomes, pH 7.4, NADPH
human 5-HT2C receptor = human 5-HT2C receptor (Homo sapiens (Human), UniProt P28335); assay type: cell-based; conditions: Ca^2+ flux
Sequence of human 5-HT2C receptor (P28335 33-458 limits assumed): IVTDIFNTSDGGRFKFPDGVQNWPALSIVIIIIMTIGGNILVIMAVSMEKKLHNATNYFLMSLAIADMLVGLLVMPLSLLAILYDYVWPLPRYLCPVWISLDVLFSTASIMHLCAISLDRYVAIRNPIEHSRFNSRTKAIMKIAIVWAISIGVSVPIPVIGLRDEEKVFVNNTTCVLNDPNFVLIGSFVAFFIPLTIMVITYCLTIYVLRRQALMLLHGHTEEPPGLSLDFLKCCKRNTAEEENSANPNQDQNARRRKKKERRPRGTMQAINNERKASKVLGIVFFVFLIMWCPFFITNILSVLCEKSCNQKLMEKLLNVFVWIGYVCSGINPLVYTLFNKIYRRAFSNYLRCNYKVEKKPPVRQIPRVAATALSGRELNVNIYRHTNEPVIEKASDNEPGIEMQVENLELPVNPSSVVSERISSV

D1 receptor = D1 receptor (Homo sapiens (Human), UniProt P21728); assay: FLIPR Ca^2+ flux agonist assay at D1; assay type: cell-based
Sequence of D1 receptor (P21728 whole entry, looked up): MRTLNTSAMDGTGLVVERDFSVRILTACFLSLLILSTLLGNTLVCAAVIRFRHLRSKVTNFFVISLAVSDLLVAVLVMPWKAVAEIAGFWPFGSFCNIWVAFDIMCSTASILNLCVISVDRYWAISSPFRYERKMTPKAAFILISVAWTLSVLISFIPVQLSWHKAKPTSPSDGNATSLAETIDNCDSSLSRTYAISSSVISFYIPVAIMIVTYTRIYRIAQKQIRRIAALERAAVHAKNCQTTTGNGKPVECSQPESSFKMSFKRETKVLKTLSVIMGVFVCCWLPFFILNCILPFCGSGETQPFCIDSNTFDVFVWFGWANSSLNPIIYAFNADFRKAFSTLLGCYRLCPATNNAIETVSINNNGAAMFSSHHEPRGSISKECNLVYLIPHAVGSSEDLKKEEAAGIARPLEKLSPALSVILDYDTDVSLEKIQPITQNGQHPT
Procedure: Functional Assays at Adrenergic and Dopamine Receptors. Agonist activity at Alpha1A, Alpha2A, D1, and D2 receptors was determined using a FLIPR Ca^2+ flux assay at WuXi AppTec (Hong Kong) Limited according to their standard protocols. Briefly, stably transfected cells expressing the receptor of interest were grown and plated in a 384 well plate and incubated at 37° C. and 5% CO2 overnight. A solution of 250 mM probenecid in 1 mL FLIPR assay buffer was prepared fresh. This was combined with a fluorescent dye (Fluo-4 Direct™) to make a final assay concentration of 2.5 mM. […] The fluorescent dye was then added to the assay plate along with assay buffer to a final volume of 40 μL. The cell plate was incubated for 50 min at 37° C. and 5% CO2 and placed into the FLIPR Tetra along with the compound plate. 10 μL of references and compounds were then transferred from the compound plate into the cell plate and the fluorescent signal was read.

C57BL/6 mice = assay: Mouse head twitch response (HTR) assay; assay type: in vivo; conditions: SC; for head twitch response (HTR), in words: mice; for head twitch response (HTR), in words / # HTR at Most Efficacious Dose / Emax (95% CI): 20 min observation; for Most Efficacious Dose / # HTR at Most Efficacious Dose / Emax (95% CI): mouse HTR; for Emax (95% CI): curve fit
Procedure: Agonists of the 5-HT2A receptor are well known to induce this effect in rodents and the potency of this HTR is correlated with hallucinogenic potency in humans.
Animals. Adult male C57BL/6 mice, aged 6-8 weeks (body weight 20-25 g) were used in this experiment. Animals were housed under controlled temperatures and 12-hour light/dark cycles (lights on between 07:00-19:00 h), with ad libitum food and water. This study was carried out in strict accordance with the requirements of the Committee for the Purpose of Control and Supervision of Experiments on Animals (CPCSEA), India. All efforts were made to minimize suffering.
Drugs and Drug Administration. Compound 1 was synthesized as described above. It was administered subcutaneously (SC) dissolved in saline vehicle at a volume of 10 mL/kg. Five doses were tested, with n=6 animals/group. Doses were calculated on the basis of the freebase.
Procedure. Mice were administered one dose of the drug and immediately placed into a small open field for behavioral observation. Animals were observed continuously for 20 mins and the number of head twitches (HTs) were counted by an observer blind to the treatment condition.
Statistical Analysis. The data points shown are the mean±standard error of the mean (SEM). Analysis was performed using GraphPad Prism 6. Curves were fit using a non-linear gaussian distribution to calculate ED50 and Emax values.
Additional disclosed compounds were tested in the mouse head twitch response (HTR) assay according to the procedure described in Example 34. […] Lastly, compounds with much larger benzyl and phenethyl substituents on the amine nitrogen (e.g., 10 and 11) were low efficacy in this assay, consistent with their lower maximal efficacy in the arrestin functional assay (see Example 32).

5-HT1B receptor = 5-HT1B receptor (Homo sapiens (Human), UniProt P28222); assay: cAMP accumulation agonist assay at 5-HT1B; assay type: cell-based
Sequence of 5-HT1B receptor (P28222 whole entry, looked up): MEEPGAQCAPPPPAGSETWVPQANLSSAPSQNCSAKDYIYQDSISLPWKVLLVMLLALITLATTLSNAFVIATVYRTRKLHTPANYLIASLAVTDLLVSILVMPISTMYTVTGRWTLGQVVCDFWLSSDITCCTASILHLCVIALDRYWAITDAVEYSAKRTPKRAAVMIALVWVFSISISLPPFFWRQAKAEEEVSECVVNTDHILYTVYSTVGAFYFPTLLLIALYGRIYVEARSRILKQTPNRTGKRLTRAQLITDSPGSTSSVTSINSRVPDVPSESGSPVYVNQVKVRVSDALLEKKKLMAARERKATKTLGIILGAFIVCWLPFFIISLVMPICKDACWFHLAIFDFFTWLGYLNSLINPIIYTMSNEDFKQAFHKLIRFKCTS
Outline: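 Stably transfected cells expressing human 5-HT1B were incubated with compound for 60 min at RT to measure agonist-driven cAMP accumulation. Detection reagent was then added for another 60 min at RT, with 800 nM cAMP standard in blank wells, and plates were read on a multilabel reader.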

5-HT2A receptor = 5-HT2A receptor (Homo sapiens (Human), UniProt P28223); assay type: cell-based; conditions: for 5-HT2A % Act @ Max Dose: Ca^2+ flux, HEK293
Outline: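 Agonist-induced calcium flux was measured on FLIPR Tetra in stable HEK293 cells for 5-HT2A and 5-HT2B, and in stable CHO cells for 5-HT1A. Cells were loaded with Fluo-4 Direct dye and 2.5 mM probenecid for 50 min at 37 °C before compound addition and fluorescence reading.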

Alpha1A receptor = Alpha1A receptor (Homo sapiens (Human), UniProt P35348); assay: FLIPR Ca^2+ flux agonist assay at Alpha1A; assay type: cell-based
Sequence of Alpha1A receptor (P35348 whole entry, looked up): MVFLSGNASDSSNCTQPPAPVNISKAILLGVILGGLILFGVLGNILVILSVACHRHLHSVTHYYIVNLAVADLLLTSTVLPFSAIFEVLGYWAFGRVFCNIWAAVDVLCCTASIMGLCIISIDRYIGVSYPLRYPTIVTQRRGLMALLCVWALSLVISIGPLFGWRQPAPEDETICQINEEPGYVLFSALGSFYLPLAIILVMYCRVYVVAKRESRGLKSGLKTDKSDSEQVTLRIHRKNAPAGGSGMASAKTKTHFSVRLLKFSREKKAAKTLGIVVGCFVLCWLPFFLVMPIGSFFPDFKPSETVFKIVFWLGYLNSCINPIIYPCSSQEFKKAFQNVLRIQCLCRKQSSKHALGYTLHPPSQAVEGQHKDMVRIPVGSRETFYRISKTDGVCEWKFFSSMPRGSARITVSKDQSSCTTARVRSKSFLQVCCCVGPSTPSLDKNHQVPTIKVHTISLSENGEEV
Procedure: Disclosed compounds were tested for agonist activity at several adrenergic (Alpha1A and Alpha2A) and dopamine (D1 and D2) receptor subtypes using Ca^2+ flux functional assays, with the results summarized in Table 6. Selectivity for the 5-HT2A receptor over these other targets varied depending on the specific target and compound.
Functional Assays at Adrenergic and Dopamine Receptors. Agonist activity at Alpha1A, Alpha2A, D1, and D2 receptors was determined using a FLIPR Ca^2+ flux assay at WuXi AppTec (Hong Kong) Limited according to their standard protocols. Briefly, stably transfected cells expressing the receptor of interest were grown and plated in a 384 well plate and incubated at 37° C. and 5% CO2 overnight. A solution of 250 mM probenecid in 1 mL FLIPR assay buffer was prepared fresh. This was combined with a fluorescent dye (Fluo-4 Direct™) to make a final assay concentration of 2.5 mM. Compounds were diluted 1:3.16 for 10 points and 750 nL was added to a 384 well compound plate using ECHO along with 30 μL assay buffer. The fluorescent dye was then added to the assay plate along with assay buffer to a final volume of 40 μL. The cell plate was incubated for 50 min at 37° C. and 5% CO2 and placed into the FLIPR Tetra along with the compound plate. 10 μL of references and compounds were then transferred from the compound plate into the cell plate and the fluorescent signal was read.

| Compound | half-life at 1 μM [1] [min] | 5-HT1A % Act @ Max Dose (5-HT1A receptor) [%] | half-life at 1 μM [2] [min] | 5-HT2C % Act @ Max Dose (human 5-HT2C receptor) [%] | D1 % Act @ Max Dose (D1 receptor) [%] | head twitch response (HTR), in words (C57BL/6 mice) | Most Efficacious Dose (C57BL/6 mice) | # HTR at Most Efficacious Dose (C57BL/6 mice) | Emax (95% CI) (C57BL/6 mice) | 5-HT1B % Act @ Max Dose (5-HT1B receptor) [%] | 5-HT2A % Act @ Max Dose (5-HT2A receptor) [%] | Alpha 1A % Act @ Max Dose (Alpha1A receptor) [%] | agonist efficacy at Alpha1A, in words (Alpha1A receptor) | selectivity for the 5-HT2A receptor over the tested adrenergic and dopamine receptors, in words (5-HT2A receptor; vs Alpha1A, Alpha2A, D1, D2) |
| --- | --- | --- | --- | --- | --- | --- | --- | --- | --- | --- | --- | --- | --- | --- |
| CCN(CC)C(=O)[C@@H]1C=C2c3cccc4[nH]cc(c34)C[C@H]2N(Cc2ccccc2OC)C1 [Compound 10, (6aR,9R)-N,N-diethyl-7-(2-methoxybenzyl)-4,6,6a,7,8,9-hexahydroindolo[4,3-fg]quinoline-9-carboxamide] | 1 | 52.96 | 3.4 | 13.417 | 114.19 | low efficacy | (3.2 mg/kg) | 6.5 | 7.749 | 87.29 | 49.44 | 26.56 | very low efficacy agonists | – |
| CCCN1C[C@H](C(=O)N[C@H](C)CC)C=C2c3cccc4[nH]cc(c34)C[C@H]21 [Compound 3, (6aR,9R)-N-((R)-sec-butyl)-7-propyl-4,6,6a,7,8,9-hexahydroindolo[4,3-fg]quinoline-9-carboxamide] | 1.6 | 107.6 | 4.4 | 119.49 | 121.3 | – | (0.32 mg/kg) | 27.0 | 25.56 | 98.66 | 102.64 | 124.7 | – | exceptional selectivity |
| CCN(CC)C(=O)[C@@H]1C=C2c3cccc4[nH]cc(c34)C[C@H]2N(CCCF)C1 [Compound 2, (6aR,9R)-N,N-diethyl-7-(3-fluoropropyl)-4,6,6a,7,8,9-hexahydroindolo[4,3-fg]quinoline-9-carboxamide] | 2.67 | 92.42 | 12 | 105.48 | 113.6 | – | (0.32 mg/kg) | 21.833 | 20.47 | 89.97 | 97.75 | 109.68 | – | – |
| CCN(CC)C(=O)[C@@H]1C=C2c3cccc4[nH]cc(c34)C[C@H]2N(CCc2ccccc2OC)C1 [Compound 11, (6aR,9R)-N,N-diethyl-7-(2-methoxyphenethyl)-4,6,6a,7,8,9-hexahydroindolo[4,3-fg]quinoline-9-carboxamide] | 0.917 | 57.91 | 1.16 | 107.89 | 90.9 | low efficacy | (3.2 mg/kg) | 12.0 | 19.79 | 47.01 | 63.46 | 28.23 | very low efficacy agonists | – |
| CCCN1C[C@H](C(=O)NC(CC)CC)C=C2c3cccc4[nH]cc(c34)C[C@H]21 [Compound 6, (6aR,9R)-N-(pentan-3-yl)-7-propyl-4,6,6a,7,8,9-hexahydroindolo[4,3-fg]quinoline-9-carboxamide] | 0.6 | 101.82 | 1.66 | 116.77 | 93.13 | – | (1 mg/kg) | 20.5 | 23.06 | 94.62 | 94.64 | – | – | – |
| CCCN1C[C@H](C(=O)N2[C@@H](C)C[C@@H]2C)C=C2c3cccc4[nH]cc(c34)C[C@H]21 [Compound 4, ((2S,4S)-2,4-dimethylazetidin-1-yl)((6aR,9R)-7-propyl-4,6,6a,7,8,9-hexahydroindolo[4,3-fg]quinolin-9-yl)methanone] | 0.8 | 123.1 | 12.8 | 110.845 | 113.6 | less efficacious than its N-methyl counterpart compound Int11 | (0.1 mg/kg) | 4.667 | 4.034 | 96 | 97.6 | 118.64 | – | – |
| CCCN1C[C@H](C(=O)N(CC)CC)C=C2c3cccc4[nH]cc(c34)C[C@H]21 [Compound 1, (6aR,9R)-N,N-diethyl-7-propyl-4,6,6a,7,8,9-hexahydroindolo[4,3-fg]quinoline-9-carboxamide] | 2.3 | 95.6 | 16.2 | 106.79 | 108.68 | induced a robust and dose-dependent HTR | (1 mg/kg) | 19.5 | 21.63 | 96.6 | 96.96 | 80.6 | – | – |
